Reference: PMC5062169, “Structural basis for ligand recognition by a Cache chemosensory domain that mediates carboxylate sensing in Pseudomonas syringae” (Scientific Reports, 2016)

What follows are molecules tested against T1, PscD (PscD-SD, Cache sensor domain of chemoreceptor PscD) (Pseudomonas syringae, UniProt A0ABY1U976). Conditions: Biolog plate compound, exact concentration unknown; binder.
T1 construct: gene CFBP3846_03581; sensor domain, Gln31-Trp188, N-terminal His6 tag
T1 sequence (A0ABY1U976 31-188): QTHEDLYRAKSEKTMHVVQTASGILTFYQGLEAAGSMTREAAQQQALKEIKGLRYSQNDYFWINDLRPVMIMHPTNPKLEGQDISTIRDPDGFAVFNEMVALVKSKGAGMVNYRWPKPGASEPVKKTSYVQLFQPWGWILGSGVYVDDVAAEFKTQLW
Set-up: fluorescence thermal shift (SYPRO Orange) screen of Biolog PM1/PM2 compounds, delta Tm
Source text: We used high-throughput fluorescence thermal shift (FTS) assays (as described previously[16]) to screen for potential ligands of PscD-SD. FTS assays are based on the principle that ligands stabilise proteins upon binding, causing an increase in the melting temperature of the protein[22][23]. Binding can therefore be rapidly screened by measuring the difference in the temperature midpoint of unfolding (ΔTm) of a protein in the presence and absence of potential ligands. In our FTS assays, the Tm was measured by monitoring an increase in fluorescence of a dye with affinity for hydrophobic parts of the protein (i.e. SYPRO Orange), which are exposed as the protein unfolds. We screened the recombinant PscD-SD protein in FTS assays against the compounds in Biolog Phenotype Microarray (PM) plates 1 and 2 (Supplementary Tables 1 and 2). Each plate contains 95 different compounds (e.g., organic acids, sugars) and a water (no ligand) control. For use in FTS assays, the compounds were resuspended directly in water, thus generating a library of biologically relevant potential ligands. […] Fluorescent thermal shift (FTS) assays were conducted as reported previously. PscD-SD was screened for potential ligands against Biolog Phenotype Microarray (PM) plates 1 and 2 (Biolog, Hayward, CA, USA). For initial qualitative, high-throughput screening, ligands were prepared by dissolving Biolog PM compounds in 50 μL of water (each) to obtain a final concentration of approximately 10–20 mM (the exact concentrations vary from well-to-well). Screens were set up in Lightcycler 480 multiwell plates (Roche Diagnostics, Auckland, NZ) with 20 μM protein, a 5x concentration of SYPRO orange (Life Technologies, Carlsbad, CA, USA) and 5 μL of the test compound (i.e. resuspended Biolog ligands) added to each well. The plate was covered with Lightcycler 480 sealing film (Roche Diagnostics) and fluorescence signal was monitored as the temperature was increased from 20 °C to 80 °C at a rate of 1.2 °C.min^−1 in a Lightcycler 480 (Roche Diagnostics). Initial hits were further tested using known concentrations (0, 1, 2, 5 and 10 mM) of each potential ligand to confirm binding. The ligands were prepared as 10x stocks, 2 μL were added to each well, and the experiments were conducted as described above. The first derivative values (−dF/dt) from the raw fluorescence data were used to determine the melting temperature (Tm). Three biological replicates (from independently cultured and purified batches of protein) were performed for each plate screened.

In order of falling “Δ Tm” value:
1. O=CC[C@H](O)[C@H](O)CO [2-Deoxy-D-Ribose]  0.66 ± 0.05 °C
2. C/C=C/C=C/C(=O)O [Sorbic Acid]  0.65 ± 0.09 °C
3. O=C(O)CCCCCCCCC(=O)O [Sebacic Acid]  0.48 ± 0.09 °C
4. OC[C@H]1O[C@@H]2O[C@H]3[C@H](O)[C@@H](O)[C@@H](O[C@H]4[C@H](O)[C@@H](O)[C@@H](O[C@H]5[C@H](O)[C@@H](O)[C@@H](O[C@H]6[C@H](O)[C@@H](O)[C@@H](O[C@H]7[C@H](O)[C@@H](O)[C@@H](O[C@H]8[C@H](O)[C@@H](O)[C@@H](O[C@H]1[C@H](O)[C@H]2O)O[C@@H]8CO)O[C@@H]7CO)O[C@@H]6CO)O[C@@H]5CO)O[C@@H]4CO)O[C@@H]3CO [β-Cyclodextrin]  0.45 ± 0.0 °C
5. CSCC[C@H](N)C(=O)O [L-Methionine]  0.43 ± 0.39 °C
6. OC[C@H]1O[C@@H]2O[C@H]3[C@H](O)[C@@H](O)[C@@H](O[C@H]4[C@H](O)[C@@H](O)[C@@H](O[C@H]5[C@H](O)[C@@H](O)[C@@H](O[C@H]6[C@H](O)[C@@H](O)[C@@H](O[C@H]7[C@H](O)[C@@H](O)[C@@H](O[C@H]8[C@H](O)[C@@H](O)[C@@H](O[C@H]9[C@H](O)[C@@H](O)[C@@H](O[C@H]1[C@H](O)[C@H]2O)O[C@@H]9CO)O[C@@H]8CO)O[C@@H]7CO)O[C@@H]6CO)O[C@@H]5CO)O[C@@H]4CO)O[C@@H]3CO [γ-Cyclodextrin]  0.28 ± 0.07 °C
7. NC(=O)CCC(=O)O [Succinamic Acid]  0.18 ± 0.10 °C
8. NCCCC[C@H](N)C(=O)O [L-Lysine]  0.10 ± 0.11 °C
9. C[C@@H](O)[C@H](O)[C@H](O)[C@@H](O)C=O [D-Fucose]  0.10 ± 0.11 °C
10. CO[C@@H]1OC[C@@H](O)[C@H](O)[C@H]1O [β-Methyl-D-Xyloside]  0.10 ± 0.11 °C
11. C/C(=C/C(=O)O)C(=O)O [Citraconic Acid]  0.08 ± 0.00 °C
12. O=C(O)[C@H](O)[C@@H](O)[C@H](O)[C@H](O)CO[C@H]1O[C@H](CO)[C@H](O)[C@H](O)[C@H]1O [Melibionic Acid]  0.08 ± 0.00 °C
13. C[C@H](N)C(N)=O [L-Alaninamide]  0.08 ± 0.00 °C
14. CC[C@H](C)[C@H](N)C(=O)O [L-Isoleucine]  0.08 ± 0.00 °C
15. O=C(O)CC(=O)O [Malonic Acid]  0.08 ± 0.00 °C
16. OC[C@H]1O[C@@H]2O[C@H]3[C@H](O)[C@@H](O)[C@@H](O[C@H]4[C@H](O)[C@@H](O)[C@@H](O[C@H]5[C@H](O)[C@@H](O)[C@@H](O[C@H]6[C@H](O)[C@@H](O)[C@@H](O[C@H]7[C@H](O)[C@@H](O)[C@@H](O[C@H]1[C@H](O)[C@H]2O)O[C@@H]7CO)O[C@@H]6CO)O[C@@H]5CO)O[C@@H]4CO)O[C@@H]3CO [α-Cyclodextrin]  0.08 ± 0.0 °C
17. OC[C@@]12OC[C@@H](O1)[C@@H](O)[C@@H](O)[C@@H]2O [Sedoheptulosan]  0.08 ± 0.00 °C
18. OCc1ccccc1O[C@@H]1O[C@H](CO)[C@@H](O)[C@H](O)[C@H]1O [Salicin]  0.08 ± 0.00 °C
19. OC[C@H]1O[C@@H](O)[C@H](O)[C@H](O)[C@@H]1O [β-D-Allose]  0.08 ± 0.00 °C
20. O=C(O)CCCO [γ-Hydroxy Butyric Acid]  0.08 ± 0.00 °C
21. OC[C@@H](O)[C@@H](O[C@@H]1O[C@H](CO)[C@H](O)[C@H](O)[C@H]1O)[C@H](O)[C@@H](O)CO [Lactitol]  0.08 ± 0.00 °C
22. CC(=O)N[C@H]1[C@H]([C@H](O)[C@H](O)CO)OC(O)(C(=O)O)C[C@@H]1O (some centres unmarked) [N-Acetyl-Neuraminic Acid]  0.08 ± 0.00 °C
23. N[C@@H](Cc1ccccc1)C(=O)O [L-Phenylalanine]  0.08 ± 0.00 °C
24. CC(=O)N[C@@H](CO)[C@@H](O)[C@H](O)[C@H](O)CO [N-Acetyl-D-Glucosaminitol]  0.08 ± 0.00 °C
25. O=C1CC[C@@H](C(=O)O)N1 [L-Pyroglutamic Acid]  0.08 ± 0.00 °C
26. CC(=O)N[C@@H](CCC(=O)O)C(=O)O [N-Acetyl-L-Glutamic Acid]  0.08 ± 0.00 °C
27. C[C@@H](O)[C@@H](C)O [2,3-Butanediol]  0.05 ± 0.03 °C
28. NCC(=O)O [Glycine]  0.05 ± 0.05 °C
29. OC[C@@H](O)[C@@H](O[C@H]1O[C@H](CO)[C@@H](O)[C@H](O)[C@H]1O)[C@H](O)[C@@H](O)CO [Maltitol]  0.05 ± 0.05 °C
30. OC[C@H]1O[C@H](OC[C@H]2O[C@H](OC[C@H]3O[C@H](O[C@]4(CO)O[C@H](CO)[C@@H](O)[C@@H]4O)[C@H](O)[C@@H](O)[C@@H]3O)[C@H](O)[C@@H](O)[C@H]2O)[C@H](O)[C@@H](O)[C@H]1O [Stachyose]  0.05 ± 0.05 °C
31. NCCCC(=O)O [γ-amino butyric acid]  0.05 ± 0.03 °C
32. OC1OC[C@@H](O)[C@@H](O)[C@@H]1O (stereo partly drawn) [D-Arabinose]  0.05 ± 0.05 °C
33. CC(C)C[C@H](N)C(=O)O [L-Leucine]  0.05 ± 0.03 °C
34. CC(O)CC(=O)O (stereo not drawn) [β-Hydroxy Butyric Acid]  0.03 ± 0.05 °C
35. N=C(N)NCCC[C@H](N)C(=O)O [L-Arginine]  0.03 ± 0.03 °C
36. O=C(CO)[C@@H](O[C@H]1O[C@H](CO)[C@@H](O)[C@H](O)[C@H]1O)[C@H](O)[C@H](O)CO [Turanose]  0.03 ± 0.03 °C
37. O=C(O)[C@@H]1C[C@@H](O)CN1 [Hydroxy-L-Proline]  0.03 ± 0.05 °C
38. O=C(O)c1ccc(O)cc1 [4-Hydroxy Benzoic Acid]  0.03 ± 0.03 °C
39. CC(O)(CC(=O)O)C(=O)O (centres unmarked) [Citramalic Acid]  0.03 ± 0.03 °C
40. N[C@@H](CCO)C(=O)O [L-Homoserine]  0.03 ± 0.03 °C
41. O=C(O)C(=O)O [Oxalic Acid]  0.03 ± 0.03 °C
42. OC[C@H]1O[C@@](CO)(O[C@H]2O[C@H](CO)[C@@H](O)[C@H](O)[C@H]2O)[C@@H](O[C@H]2O[C@H](CO)[C@@H](O)[C@H](O)[C@H]2O)[C@@H]1O [D-Melezitose]  0.03 ± 0.03 °C
43. NCCCCN [Putrescine]  0.03 ± 0.05 °C
44. CC(C)[C@H](N)C(=O)O [L-Valine]  0.03 ± 0.03 °C
45. OC[C@H]1O[C@@H](Oc2ccc(O)cc2)[C@H](O)[C@@H](O)[C@@H]1O [Arbutin]  0.03 ± 0.05 °C
46. N#C[C@H](O[C@@H]1O[C@H](CO[C@@H]2O[C@H](CO)[C@@H](O)[C@H](O)[C@H]2O)[C@@H](O)[C@H](O)[C@H]1O)c1ccccc1 [Amygdalin]  0.03 ± 0.03 °C
47. OC[C@H](O)C(O)[C@@H](O)CO [L-Arabitol]  0.03 ± 0.03 °C
48. CCC(C)N (centres unmarked) [Sec-Butylamine]  0.00 ± 0.04 °C
49. OC[C@@H](O)C(O)[C@H](O)CO [D-Arabitol]  0.00 ± 0.05 °C
50. O=C(O)c1ccccc1O [2-Hydroxy Benzoic Acid]  0.00 ± 0.04 °C
51. CC(N)=O [Acetamide]  0.00 ± 0.00 °C
52. O=C(CO)[C@@H](O)[C@@H](O)[C@H](O)CO [D-Tagatose]  0.00 ± 0.04 °C
53. N[C@@H](Cc1c[nH]cn1)C(=O)O [L-Histidine]  0.00 ± 0.04 °C
54. COC(=O)[C@@H](C)O [D-Lactic Acid Methyl Ester]  0.00 ± 0.00 °C
55. OC[C@H]1O[C@H](OC[C@H]2O[C@H](O[C@]3(CO)O[C@H](CO)[C@@H](O)[C@@H]3O)[C@H](O)[C@@H](O)[C@@H]2O)[C@H](O)[C@@H](O)[C@H]1O [D-Raffinose]  0.00 ± 0.00 °C
56. CC(=O)N[C@H]1C(O)O[C@H](CO)[C@H](O)[C@@H]1O (stereo partly drawn) [N-Acetyl-D-Galactosamine]  0.00 ± 0.00 °C
57. O=C(O)[C@]1(O)C[C@@H](O)[C@@H](O)[C@H](O)C1 [Quinic Acid]  0.00 ± 0.04 °C
58. C[N+](C)(C)CC(O)CC(=O)[O-] (racemic) [D,L-Carnitine]  -0.02 ± 0.02 °C
59. C=C(CC(=O)O)C(=O)O [Itaconic Acid]  -0.05 ± 0.33 °C
60. N[C@H]1C(O)O[C@H](CO)[C@@H](O)[C@@H]1O (stereo partly drawn) [D-Glucosamine]  -0.25 ± 0.03 °C

Same assay, conditions: Biolog plate compound, exact concentration unknown; binder; Δ Tm

In order of falling “Δ Tm” value:
1. O=C(O)[C@H](O)[C@@H](O)C(=O)O [L-Tartaric Acid]  0.33 ± 0.29 °C
2. O=C(O)[C@@H](O)[C@H](O)C(=O)O [D-Tartaric Acid]  0.10 ± 0.11 °C
